Source: patent publication US12173026B2, “PRMT5 inhibitors” (Merck Sharp & Dohme LLC, priority 2018, dated 2024)
pEC50: −log10 of the molar value.

What follows are compounds tested on symmetric dimethylation of arginine (SDMA) of PRMT5 substrates in MCF-7 cells (assay: PRMT5 Cell Target Engagement (TE) Assay). Settings: Homo sapiens, MCF7, 72 h; MCF-7 cells treated for 3 days; nuclear SDMA by high content imaging; top concentration 10000 nM.
Assay type: cell-based
Description: PRMT5 Cell Target Engagement (TE) Assay
The PRMT5 TE assay is a biomarker assay for identifying compounds that inhibit symmetric dimethylation of arginine (SDMA) of PRMT5 substrates. The following substrates have been reported for PRMT5: Histone H2A and H4 R3, Histone H3 R2, Histone 1-13 R8, spliceosome Sm proteins, ribosomal protein RPS10, p53, FEN1, nucleoplasmin, nucleolin, EGFR and EBNA. The assay will focus on detecting symnetrically dimethylated nuclear proteins using high content imaging technology. Detection of the expression of symmetrically dimethylated nuclear proteins is through a mixture of primary rabbit monoclonal antibodies to SDMA (CST 13222) which in turn recognized by an Alexafluor 488 dye-conjugated anti-rabbit IgG secondary antibody. The IN Cell Analyzer 2200 or Opera-Phenix measures nuclear Alexafluor 488 fluorescent dye intensity that is directly related to the level of expression of symmetrically dimethylated nuclear proteins at the single cell level. Nuclear AF488 dye intensities are compared to the mean value for DMSO treated cells (MIN) to report percent of inhibition for each compound-treated well.
In this assay, the cell potency (EC50) of each compound was determined from a ten point (1:3 serial dilution; top compound concentration of 10000 nM) titration curve using the following outlined procedure. Each well of a BD falcon collagen coated black/clear bottom 384-well plate was seeded with 4000 MCF-7 cells in 30 pal media and allowed to attach for 5 hours. Media is ATCC-formulated Eagle's Minimum Essential Medium, Catalog No. 30-2003. The following components were added to the base medium: 0.01 mg/mL human recombinant insulin; fetal bovine serum to a final concentration of 10%. Additional 30 pal of media containing 2× compounds were added to each well. Cells were treated for 3 days in 37° C. CO2 incubator. On day 3, cells were fixed with Cytofix, permeabilized with 0.4% Triton-X-100/Cytofix, and washed with D-PBS without Ca/Mg. Cells were blocked with Licor Odessey blocking reagent for 1 hour at room temperature, followed by incubation with anti-SDMA (1:1000) antibody at 4° C. overnight. 1° antibody was removed, followed by three washings with DPBS without Ca/Mg and 0.05% Tween20. Hoechst (5 μg/mL), Cell Mask deep stain (1:2000) and Alexa488-conjugated goat anti-rabbit IgG (2 μg/mL) was added for 1 hour at room temperature. A final washing step (three washes) was performed before sealing plate for imaging on in Cell Analyzer 2200 or Opera-Phenix. Images from analyzer were uploaded to Columbus for image analysis. IC50 values were determined by 4 parameters robust fit of percent fluorescence units vs. (Log 10) compound concentrations.

| Compound | pEC50 |
| --- | --- |
| CNc1ncnc2c1ccn2[C@@H]1O[C@@H]2[C@@H](Oc3ccc4cc(Br)c(N)nc4c3)CC[C@]2(O)[C@H]1O [Example 94, (2R,3R,3aS,6S,6aR)-6-((2-amino-3-bromoquinolin-7-yl)oxy)-2-(4-(methylamino)-7H-pyrrolo[2,3-d]pyrimidin-7-yl)hexahydro-3aH-cyclopenta[b]furan-3,3a-diol] | 8.28 |
| Nc1nc2cc(C[C@H]3[C@H]4O[C@@H](n5ccc6c(N)ncnc65)[C@H](O)[C@@]4(O)CC3(F)F)ccc2cc1F [Example 53, (2R,3R,3aS,6S,6aR)-6-[(2-amino-3-fluoroquinolin-7-yl)methyl]-2-(4-amino-7H-pyrrolo[2,3-d]pyrimidin-7-yl)-5,5-difluorohexahdro-3aH-cyclopenta[b]furan-3,3a-diol] | 8.35 |
| Cc1nc(C)c2ccn([C@@H]3O[C@@H]4[C@H](Cc5ccc6cc(Br)c(N)nc6c5)CC[C@]4(O)[C@H]3O)c2n1 [Example 81, (2R,3R,3aS,6S,6aR)-6-((2-ammo-3-bromoquinolin-7-yl)methyl)-2-(2,4-dimethyl-7H-pyrrolo[2,3-d]pyrimidin-7-yl)hexahydro-3aH-cyclcopenta[b]furan-3,3a-diol] | 8.41 |
| C[C@]1(CCc2ccc3cc(Br)c(N)nc3c2)C[C@@H](n2ccc3c(N)ncnc32)[C@H](O)[C@]1(C)O [Example 117, (1R,2S,3R,5S)-5-(2-(2-amino-3-bromoquinolin-7-yl)ethyl)-3-(4-amino-7H-pyrrolo[2,3-d]pyrimidin-7-yl)-1,5-dimethylcyclopentane-1,2-diol] | 8.07 |
| Cc1nc(C)c2ccn([C@@H]3O[C@@H]4[C@H](Cc5ccc6cc(Cl)c(N)nc6c5)CC[C@]4(O)[C@H]3O)c2n1 [Example 91, (2R,3R,3aS,6S,6aR)-6-((2-amino-3-chloroquinolin-7-yl)methyl)-2-(2,4-dimethyl-7H-pyrrolo[2,3-d]pyrimidin-7-yl)hexahydro-3aH-cyclopenta[b]furan-3,3a-diol] | 8.20 |
| Cc1ncnc2c1ccn2[C@@H]1O[C@@H]2[C@@H](Cc3ccc4cc(Cl)c(N)nc4c3)CC[C@]2(O)[C@H]1O [Example 131, (2R,3R,3aS,6R,6aR)-6-((2-amino-3-chloroquinolin-7-yl)methyl)-2-(4-methyl-7H-pyrrolo[2,3-d]pyrimidin-7-yl)hexahydro-3aH-cyclopenta[b]furan-3,3a-diol] | 7.67 |
| C[C@@]1(O)[C@@H](CCc2ccc3cc(Br)c(N)nc3c2)O[C@@H](n2ccc3c(N)ncnc32)[C@@H]1O [Example 14, (2R,3S,4R,5R)-2-(2-(2-amino-3-bromoquinolin-7-yl)ethyl)-5-(4-amino-7H-pyrrolo[2,3-d]pyrimidin-7-yl)-3-methyltetrahydrofuran-3,4-diol] | 7.77 |
| CNc1ncnc2c1ccn2[C@@H]1O[C@@H]2[C@H](Cc3ccc4cc(Br)c(N)nc4c3)CC[C@]2(O)[C@H]1O [Example 92] | 8.00 |
| Nc1ncc2c(F)cn([C@@H]3O[C@@H]4[C@@H](Oc5ccc6cc(Br)c(N)nc6c5)CC[C@]4(O)[C@H]3O)c2n1 [Example 130, (2R,3R,3aS,6S,6aR)-6-((2-amino-3-bromoquinolin-7-yl)oxy)-2-(2-amino-5-fluoro-7H-pyrrolo[2,3-d]pyrimidin-7-yl)hexahydro-3aH-cyclopenta[b]furan-3,3a-diol] | 6.87 |
| Nc1nc2cc(C[C@@H]3CC[C@@]4(O)[C@@H]3O[C@@H](n3ccc5c(N)ncnc53)[C@@H]4O)ccc2cc1C(F)(F)F [Example 76, (2R,3R,3aS,6S,6aR)-6-((2-amino-3-(trifluoromethyl)quinolin-7-yl)methyl)-2-(4-amino-7H-pyrrolo[2,3-d]pyrimidin-7-yl)hexahydro-3aH-cyclopenta[b]furan-3,3a-diol] | 8.07 |
| Cc1nc(C)c2ccn([C@@H]3O[C@@H]4[C@@H](Oc5ccc6cc(Br)c(N)nc6c5)CC[C@]4(O)[C@H]3O)c2n1 [Example 80, (2R,3R,3aS,6S,6aR)-6-((2-amino-3-bromoquinolin-7-yl)oxy)-2-(2,4-dimethyl-7H-pyrrolo[2,3-d]pyrimidin-7-yl)hexahydro-3aH-cyclopenta[b]furan-3,3a-diol 2,2,2-trifluoroacetate] | 7.01 |
| C[C@@]1(O)[C@@H](COc2ccc3cc(Br)c(N)nc3c2)O[C@@H](n2ccc3c(N)ncnc32)[C@@H]1O [Example 10, (2R,3S,4R,5R)-2-(((2-amino-3-bromoquinolin-7-yl)oxy)methyl)-5-(4-amino-7H-pyrrolo[2,3-d]pyrimidin-7-yl)-3-methyltetrahydrofuran-3,4-diol] | 8.19 |

These reach a higher pEC50. Values come first.

| pEC50 | Compound |
| --- | --- |
| 8.70 | Nc1nc2cc(O[C@H]3CC[C@@]4(O)[C@@H]3O[C@@H](n3cc(F)c5c(N)ncnc53)[C@@H]4O)ccc2cc1F [Example 73, (2R,3R,3aS,6S,6aR)-6-((2-amino-3-fluoroquinolin-7-yl)oxy)-2-(4-amino-5-fluoro-7H-pyrrolo[2,3-d]pyrimidin-7-yl)hexahydro-3aH-cyclopenta[b]furan-3,3a-diol] |
| 9.00 | Nc1nc2cc(O[C@H]3CC[C@@]4(O)[C@@H]3O[C@@H](n3cc(F)c5c(N)ncnc53)[C@@H]4O)ccc2cc1Cl [Example 74, (2R,3R,3aS,6S,6aR)-6-((2-amino-3-chloroquinolin-7-yl)oxy)-2-(4-amino-5-fluoro-7H-pyrrolo[2,3-d]pyrimidin-7-yl)hexahydro-3aH-cyclopenta[b]furan-3,3a-diol] |
| 9.00 | Cc1cn([C@@H]2O[C@@H]3[C@H](Cc4ccc5cc(Br)c(N)nc5c4)CC[C@]3(O)[C@H]2O)c2ncnc(N)c12 [Example 70, (2R,3R,3aS,6S,6aR)-6-((2-amino-3-bromoquinolin-7-yl)methyl)-2-(4-amino-5-methyl-7H-pyrrolo[2,3-d]pyrimidin-7-yl)hexahydro-3aH-cyclopenta[b]furan-3,3a-diol 2,2,2-trifluoroacetate] |
| 9.00 | C[C@]12O[C@@H](n3ccc4c(N)ncnc43)[C@H](O)[C@@]1(O)CC[C@H]2Cc1ccc2cc(F)c(N)nc2c1 [Example 121, (2R,3R,3aS,6S,6aR)-6-((2-amino-3-fluoroquinolin-7-yl)methyl)-2-(4-amino-7H-pyrrolo[2,3-d]pyrimidin-7-yl)-6a-methylhexahydro-3aH-cyclopenta[b]furan-3,3a-diol] |
| 8.68 | Nc1ncnc2c1ccn2[C@@H]1O[C@@H]2[C@@H](Oc3ccc4ccc(NCC(F)(F)F)nc4c3)CC[C@]2(O)[C@H]1O [Example 57, (2R,3R,3aS,6S,6aR)-2-(4-amino-7H-pyrrolo[2,3-d]pyrimidin-7-yl)-6-((2-((2,2,2-trifluoroethyl)amino)quinolin-7-yl)oxy)hexahydro-3aH-cyclopenta[b]furan-3,3a-diol] |
| 8.57 | Cc1ncnc2c1ccn2[C@@H]1O[C@@H]2[C@H](Cc3ccc4cc(Br)c(N)nc4c3)OC[C@]2(O)[C@H]1O [Example 133] |
| 9.40 | Nc1nc2cc(C[C@@H]3CC[C@@]4(O)[C@@H]3C[C@@H](n3cc(F)c5c(N)ncnc53)[C@@H]4O)ccc2cc1F [Example 33, (1S,2R,3aR,4S,6aR)-4-((2-amino-3-fluoroquinolin-7-yl)methyl)-2-(4-amino-5-fluoro-7H-pyrrolo[2,3-d]pyrimidin-7-yl)hexahydropentalene-1,6a(1H)-diol] |
| 8.89 | Nc1nc2cc(C[C@@H]3CC[C@@]4(O)[C@@H]3O[C@@H](n3ccc5c(N)ncnc53)[C@@H]4O)ccc2cc1Br [Example 9, (2R,3R,3aS,6S,6aR)-6-((2-amino-3-bromoquinolin-7-yl)methyl)-2-(4-amino-7H-pyrrolo[2,3-d]pyrimidin-7-yl)hexahydro-2H-cyclopenta[b]furan-3,3a-diol] |
| 9.10 | Nc1nc2cc(C[C@@H]3CC[C@@]4(O)[C@@H]3C[C@@H](n3cc(F)c5c(N)ncnc53)[C@@H]4O)cc(F)c2cc1F [Example 30, (1S,2R,3aR,4S,6aR)-4-((2-amino-3,5-difluoroquinolin-7-yl)methyl)-2-(4-amino-5-fluoro-7H-pyrrolo[2,3-d]pyrimidin-7-yl)hexahydropentalene-1,6a(1H)-diol] |
| 8.60 | Cc1ncnc2c1ccn2[C@@H]1O[C@@H]2[C@H](Cc3ccc4cc(Cl)c(N)nc4c3)CC[C@]2(O)[C@H]1O [Example 122, (2R,3R,3aS,6S,6aR)-6-((2-amino-3-chloroquinolin-7-yl)methyl)-2-(4-methyl-7H-pyrrolo[2,3-d]pyrimidin-7-yl)hexahydro-3aH-cyclopenta[b]furan-3,3a-diol] |
